Laboratory results taken from patent US20060222628A1, “Gallium complexes of 3-hydroxy-4-pyrones to treat infection by intracellular prokaryotes and DNA viruses” (priority 1999, published 2006).

Key:
[1] = system: HIV infection; assay: Clinical evaluation for treating HIV infection; type: in vivo, human; settings: 250, 500 or 750 mg/day oral about six months, with AZT, ddI and indinavir
Method: Patients with HIV infection are treated once per day with gelatin capsules containing 250 mg gallium maltolate. Patients are divided randomly and blindly into approximately equal groups that receive either 0 (placebo), 250, 500, or 750 mg/day gallium maltolate for about six months, together with 300 mg AZT twice per day, 200 mg ddI twice per day, and 800 mg indinavir every eight hours. Patients are medically monitored for symptoms of HIV infection throughout the study. In addition, blood serum samples are obtained from the patients at days 0, 30, 90, and 180 and are assayed for CD4 T-cell count by routine methods and for HIV-1 RNA (viral load assay) using the Roche […] ultra-assay (Sun et al. (1998), “Ultrasensitive reverse transcription-PCR assay for quantitation of human immunodeficiency virus type 1 RNA in plasma,” J. Clin. Microbiol. 36(10):2964-2969).

[2] = system: Herpes Simplex; assay: Clinical evaluation for Herpes Simplex (I or II) infection and recurrences; type: in vivo, human
Method: Patients with Herpes Simplex infection are treated once per day with gelatin capsules containing gallium maltolate. The population of patients is divided into subpopulation with recurrent Herpes Simplex and acute Herpes Simplex infections respectively. These different subpopulations are divided randomly and blindly into two approximately equal groups with four approximately equal subgroups that receive either 0 (placebo), 250, 500, or 750 mg/day gallium maltolate for about six months. The first group of each subpopulation receive the gallium maltolate dose together with 200 mg acyclovir five times per day. The second group of each subpopulation receive the gallium maltolate dose together with 500 mg ganciclovir twice per day. Patients are medically monitored for resolution recurrences of latent Herpes Simplex infection, or medical symptoms of acute Herpes Simplex infection throughout the study, with the monitoring including in situ hybridization of skin lesions for HSV DNA. In addition for the acute Herpes Simplex infected group, blood serum samples are obtained from the patients at days 0, 3, 7, and 10 and are assayed for HSV particle by routine methods and for Herpes Simplex DNA (viral load assay) using PCR.

[3] = system: hepatitis B; assay: Clinical evaluation in co-infection by HIV and hepatitis B: hepatitis B; type: in vivo, human
Method: (§1) Gallium maltolate is evaluated clinically for efficacy in treating hepatitis B co-infection of a HIV-1 patients. In addition to the methods used in Example 5 for evaluating the HIV disease, the methods employed in the clinical studies discussed in the following references are used in the evaluation: Yao et al. (1997), “Treatment of Chronic Hepatitis B: New Antiviral Therapies,” Curr. Gastroenterol. Rep. 1(1):20-26; Hoofnagle et al. (1997), “New therapies for chronic hepatitis B,” supra.
(§2) Patients are treated once per day with gelatin capsules containing gallium maltolate. The population of patients with hepatitis B and HIV infection are first divided into two subpopulations groups based on CD4+ counts (above 350/mm^3 and below 350/mm^3). […]
(§3) In each subpopulation, the first group's four subgroups from each subpopulation (above 350/mm^3 and below 350/mm^3) additionally receive the gallium maltolate dose together with 10 million IU interferon by injection once per day. […] Patients are monitored for HIV disease precisely as described in Example 5. Patients are also medically monitored for liver disease, including liver function testing and examination for medical symptoms of hepatitis B infection throughout the study, with careful attention to the possibility that the drugs themselves may cause some liver disease and elevate the liver function tests. […]

[4] = system: HIV-1; assay: Clinical evaluation in co-infection by HIV and hepatitis B: HIV; type: in vivo, human; settings: hepatitis B co-infected patients; MacSynergy II
Method: as §1, §2, §3

[5] = system: HIV; assay: Clinical evaluation for prevention of CMV disease in HIV patients: HIV; type: in vivo; settings: CMV prevention study; MacSynergy II
Method: Patients are treated once per day with gelatin capsules containing gallium maltolate. The population of patients with CMV (almost universal, seropositive or culture positive patients) and HIV infection are first divided into two subpopulations groups based on CD4+ counts (above 350/mm^3 and below 350/mm^3). The subpopulations are randomly and blindly divided into two groups each randomly subdivided into subgroups for a total of sixteen approximately equal subgroups that receive either 0 (placebo), 250, 500, or 750 mg/day gallium maltolate for about six months. All subgroups receive the identical regimen of non-gallium antiretroviral therapy as described in Example 5 (a HAART regime). […] In each subpopulation, the first group's four subgroups from each subpopulation (above 350/mm^3 and below 350/mm^3) additionally receive the gallium maltolate dose together with 5500 mg foscarnet, IV infusion over 1.5-2 hr., twice per day. In each subpopulation, the second group's four subgroups receive the gallium maltolate dose together with 1000 mg ganciclovir four times per day. Patients are monitored for HIV disease precisely as described in Example 5. Patients are also medically monitored for CMV disease, including testing and examination for medical symptoms of CMV disease, such as CMV retinitis, throughout the study. Any mucosal or skin lesions are studied by in situ hybridization for CMV DNA. […]

[6] = in vivo, po; cited from earlier work

SMILES: Cc1occc(=O)c1[O-].Cc1occc(=O)c1[O-].Cc1occc(=O)c1[O-].[Ga+3] [gallium maltolate, tris(3-hydroxy-2-methyl-4H-pyran-4-onato)gallium]
- Efficacy in treating HIV infection [1]: effective for treating HIV infection
- Efficacy in treating Herpes Simplex infection ([2]; HIV negative patients, 250-750 mg/day oral with acyclovir or ganciclovir): effective for treating Herpes Simplex infection, including recurrent sores as well as more serious systemic disease
- Efficacy of combination with acyclovir or ganciclovir versus single agents ([2]; Herpes Simplex): more effective than either agent alone
- Synergy with nucleoside analogs ([2]; Herpes Simplex, MacSynergy II): synergy of gallium with both nucleoside analogs is also demonstrated
- Efficacy in treating hepatitis B infection in combination ([3]; HIV co-infected patients on HAART, with interferon-alpha or lamuvidine): effective in combination with interferon and interferon plus nucleoside analogs
- Synergy in treating hepatitis B infection ([3]; with interferon and interferon plus nucleoside analogs): synergistic with both
- Synergy with the HAART regime on HIV infection [4]: synergistic with the HAART regime in their effects upon the HIV infection
- Synergy with the HAART regime on HIV infection [5]: synergistic with the HAART regime in their effects upon the HIV infection
- Renotoxicity or nephrotoxicity [6]: no renotoxicity or nephrotoxicity has been observed
